Results reported in ChEMBL document CHEMBL3992492, “Sulfoximines from a Medicinal Chemist's Perspective: Physicochemical and in vitro Parameters Relevant for Drug Discovery” (Eur J Med Chem, 2017).
≈ marks a conversion by molar mass, not a printed value.

Legend:
physchem [1] = details: acetonitrile/water mixture
Description: Solubility of the compound in acetonitrile/water mixture at 10 mM measured after 24 by HPLC-UV method

physchem [2] = details: octanol/water, pH 10
physchem [3] = details: aqueous
in vitro [4] = details: human, liver microsomes
in vitro [5] = details: PAMPA, pH 7.4
Description: Apparent permeability of the compound at pH 7.4 by PAMPA

in vitro [6] = details: human, liver microsomes; remark: listed apart in the source
Description: Half life in human liver microsomes at 1 uM in presence of NADPH by LC-MS/MS method

[7] = Apparent partition coefficient, log P of the compound in n-octanol/aqueous mixture by potentiometric titration method; type: physicochemical
[8] = Drug degradation in pH <1 HCl after 7 days by HPLC method
[9] = Drug degradation in pH >10 NH3 after 7 days by HPLC method
[10] = Dissociation constant, pKb of the compound in aqueous/organic mixture at pH 2 to 12 by potentiometric titration method; type: physicochemical; details: buffer

Row | SMILES | solubility at 10000 µM (physchem [1]) [µg/mL] | logP (physchem [2]) | solubility thermodynamic (physchem [3]) [µg/mL] | hepatic extraction ratio at 1 µM (in vitro [4]) | Papp (in vitro [5]) [×10⁻⁶ cm/s] | half-life at 1 µM (in vitro [6]) [h] | logP [7] | Drug degradation [8] [%] | Drug degradation [9] [%] | pKb [10]
1 | NC(=O)c1ccc(C(F)(F)F)cc1 | > 44 | 0.3 | 300 (≈ 1590 µM) |  |  |  |  |  |  | 
2 | CS(=O)(=Nc1ccc(C(F)(F)F)cc1)C1CCOCC1 (configuration not stated) | 46 (≈ 150 µM) |  |  | < 0.23 | 9.6 | > 2.17 | 2.5 |  |  | 
3 | CS(=O)(=Nc1ccc(C(F)(F)F)cc1)c1cccnc1 (configuration not stated) | 47 (≈ 157 µM) |  |  | < 0.23 | 8.4 | > 2.17 | 2.5 |  |  | 
4 | CS(=O)(=Nc1ccc(C(F)(F)F)cc1)c1ccncc1 (configuration not stated) | 44 (≈ 147 µM) |  |  | 0.41 | 6.2 | 0.933 | 2.6 |  |  | 
5 | CS(C)(=N)=NC(=O)c1ccc(C(F)(F)F)cc1 |  | 0.4 | 8100 (≈ 30700 µM) | < 0.23 | 9.2 | > 2.17 |  | > 90 | 34 | 
6 | O=S1(=Nc2cc(C(F)(F)F)cc(C(F)(F)F)c2)CCCCC1 | < 1 |  |  | 0.87 | 3.3 | 0.1 | 4 |  |  | 
7 | CN(c1ccc(C(F)(F)F)cc1)S(C)(=O)=O | 46 (≈ 182 µM) | 2.5 | 200 (≈ 790 µM) |  |  |  |  |  |  | 
8 | COc1ccc(N=S2(=O)CCCCC2)cc1 | > 51 |  | 900 (≈ 3760 µM) | < 0.23 | 9.1 | > 2.17 | -0.1 |  |  | 
9 | O=S1(=Nc2ccc(C(F)(F)F)cc2)CCNCC1 | > 57 |  | 2300 (≈ 8260 µM) | 0.25 | 8.3 | 1.83 | 0.9 |  |  | 5.2
10 | CN(C)S(=O)(=O)c1ccc(C(F)(F)F)cc1 | 47 (≈ 186 µM) | 2.7 | 90 (≈ 355 µM) |  |  |  |  |  |  | 
11 | O=S1(=Nc2ccccc2Cl)CCCCC1 | > 50 |  | 500 (≈ 2050 µM) | 0.58 | 12 | 0.467 | 2 |  |  | 
12 | CS(C)(=N)=NC(=O)Nc1ccc(C(F)(F)F)cc1 | > 68 | 0.4 | 500 (≈ 1790 µM) |  | 3.3 |  |  | < 10 | < 10 | 3.3
13 | O=S1(=Nc2ccncc2)CCCCC1 | 42 (≈ 200 µM) |  |  | < 0.23 | 5.7 | > 2.17 | -2.6 |  |  | 7.2
14 | CS(=O)(=O)c1ccc(C(F)(F)F)cc1 | > 47 | 1.5 | 300 (≈ 1340 µM) |  |  |  |  |  |  | 
15 | CC(=O)N(C)c1ccc(C(F)(F)F)cc1 | > 52 | 0.8 | 1300 (≈ 5990 µM) |  | 9.7 |  |  |  |  | 
16 | CS(=O)(=O)Oc1ccc(C(F)(F)F)cc1 |  | 4.3 | 300 (≈ 1250 µM) |  |  |  |  |  |  | 
17 | C[S@@](=O)(=Nc1ccc(C(F)(F)F)cc1)c1ccccc1 | 17 (≈ 56.8 µM) |  |  | < 0.23 | 3.5 | > 2.17 | 3.7 |  |  | 
18 | CN=S(C)(=O)c1ccc(C(F)(F)F)cc1 (configuration not stated) | > 54 | 0.1 | 2400 (≈ 10100 µM) | < 0.23 | 11 | > 2.17 |  | < 10 | < 10 | 
19 | O=S1(=Nc2ccccc2)CCCCC1 | 37 (≈ 177 µM) |  |  | < 0.23 | 9.5 | > 2.17 | -0.1 |  |  | 
20 | CS(=O)(=O)Cc1ccc(C(F)(F)F)cc1 |  | 1.3 | 400 (≈ 1680 µM) |  |  |  |  |  |  | 
21 | CN(C)S(C)(=O)=Nc1ccc(C(F)(F)F)cc1 (configuration not stated) | 41 (≈ 154 µM) | 2.4 | 70 (≈ 263 µM) | 0.48 | 7.6 | 0.7 |  |  |  | 
22 | CNS(C)(=O)=Nc1ccc(C(F)(F)F)cc1 (configuration not stated) | > 54 | 1.6 | 800 (≈ 3170 µM) | < 0.23 | 5 | > 2.17 |  |  |  | 
23 | O=S1(=Nc2ccc(C(F)(F)F)cc2)CCC1 | 48 (≈ 193 µM) |  |  | < 0.23 | 9.6 | > 2.17 | 2.5 |  |  | 
24 | C[S@](=O)(=Nc1ccc(C(F)(F)F)cc1)c1ccccc1 | 20 (≈ 66.8 µM) |  |  | < 0.23 | 2.5 | > 2.17 | 3.7 |  |  | 

Row | SMILES | solubility at 10000 µM (physchem [1]) [µg/mL] | logP (physchem [2]) | solubility thermodynamic (physchem [3]) [µg/mL] | hepatic extraction ratio at 1 µM (in vitro [4]) | Papp (in vitro [5]) [×10⁻⁶ cm/s] | half-life at 1 µM (in vitro [6]) [h] | logP [7] | Drug degradation [8] [%] | Drug degradation [9] [%] | pKb [10]
25 | O=S1(=Nc2cccnc2)CCCCC1 | > 75 |  |  | 0.82 | 5.8 | 0.133 | -2.7 |  |  | 4.8
26 | CC(C)(C)NC(=O)Nc1ccc(C(F)(F)F)cc1 | < 1 | 3.4 | 20 (≈ 76.8 µM) | < 0.23 | 5.1 | > 2.17 |  |  |  | 
27 | CN=S(=O)(NC)c1ccc(C(F)(F)F)cc1 (configuration not stated) |  | 0.4 | 1200 (≈ 4760 µM) | < 0.23 | 9.8 | > 2.17 |  | < 10 | < 10 | 
28 | CC(C)(C)NC(=O)c1ccc(C(F)(F)F)cc1 | 14 (≈ 57.1 µM) | 2.6 | 10 (≈ 40.8 µM) | < 0.23 | 7.1 | > 2.17 |  |  |  | 
29 | C[S+]([O-])c1ccc(C(F)(F)F)cc1 (configuration not stated) | > 46 | -0.3 | 11100 (≈ 53300 µM) |  |  |  |  |  |  | 
30 | O=S1(=Nc2ccc(C(F)(F)F)cc2)CCCC1 | 50 (≈ 190 µM) |  | 6000 (≈ 22800 µM) | 0.26 | 8.7 | 1.83 | 2.4 |  |  | 
31 | CS(=O)(=Nc1ccc(C(F)(F)F)cc1)C1CC1 (configuration not stated) | 40 (≈ 152 µM) |  |  | < 0.23 | 7.8 | > 2.17 | 2.3 |  |  | 
32 | Cn1cc(N=S2(=O)CCCCC2)cn1 | 39 (≈ 183 µM) |  |  | < 0.23 | 3.2 | > 2.17 | -3.9 |  |  | 
33 | CS(C)(=O)=NC(=O)c1ccc(C(F)(F)F)cc1 | > 53 | 1.8 | 300 (≈ 1130 µM) | 0.39 | 11 | 1.03 |  | > 90 | < 10 | 
34 | CC(C)(C)OC(=O)Nc1ccc(C(F)(F)F)cc1 | < 1 | 4.4 | < 1 |  | 0.8 |  |  |  |  | 
35 | O=S1(=Nc2ccc(C(F)(F)F)cc2)CCCCC1 | 51 (≈ 184 µM) | 2.8 | 70 (≈ 252 µM) | 0.46 | 7.7 | 0.767 | 2.8 | < 10 | < 10 | 
36 | CN=S(=O)(c1ccc(C(F)(F)F)cc1)N(C)C (configuration not stated) |  | 1.5 | 1200 (≈ 4510 µM) | < 0.23 | 9.5 | > 2.17 |  | < 10 | 10 | 
37 | N#Cc1ccc(N=S2(=O)CCCCC2)cc1 | 45 (≈ 192 µM) |  |  | < 0.23 | 7.9 | > 2.17 | 1.1 |  |  | 
38 | CC(C)(C)OC(=O)c1ccc(C(F)(F)F)cc1 | 7 (≈ 28.4 µM) | 4.8 | 20 (≈ 81.2 µM) |  |  |  |  |  |  | 
39 | CNC(=O)c1ccc(C(F)(F)F)cc1 |  | 0.5 | 200 (≈ 984 µM) | < 0.23 | 5.7 | > 2.17 |  |  |  | 
40 | O=S1(=Nc2ccc(C(F)(F)F)cc2)CCOCC1 | > 57 |  | 300 (≈ 1070 µM) | < 0.23 | 8 | > 2.17 | 2.7 |  |  | 
41 | CCS(C)(=O)=Nc1ccc(C(F)(F)F)cc1 (configuration not stated) | > 51 |  |  | < 0.23 | 7.7 | > 2.17 | 2 |  |  | 
42 | O=S1(=Nc2ccc(F)cc2)CCCCC1 | > 46 |  | > 1000 | 0.25 | 9.5 | 2 | 0.7 |  |  | 
43 | C[S+]([O-])Cc1ccc(C(F)(F)F)cc1 (configuration not stated) | > 51 | -0.5 | 4300 (≈ 19300 µM) | 0.25 | 6.3 | 1.83 |  |  |  | 
44 | CS(C)(=O)=NC(=O)Nc1ccc(C(F)(F)F)cc1 | 44 (≈ 157 µM) | 1.6 | 40 (≈ 143 µM) | < 0.23 | 4.3 | > 2.17 |  | < 10 | 14 | 
45 | CC(C)(C)S(C)(=O)=Nc1ccc(C(F)(F)F)cc1 (configuration not stated) | 22 (≈ 78.8 µM) |  |  |  |  |  | 3.1 |  |  | 
46 | CC(=O)Nc1ccc(C(F)(F)F)cc1 | 10 (≈ 49.2 µM) | 1.8 | 100 (≈ 492 µM) | 0.39 | 6 | 1 |  |  |  | 
47 | CS(C)(=O)=Nc1ccc(C(F)(F)F)cc1 | > 50 | 1.4 | 900 (≈ 3790 µM) | < 0.23 | 8.2 | > 2.17 | 1.4 | 13 | 20 | 
